Columns and labels:
[1] = test system: ERK phosphorylation (pERK); assay: pERK dose-response in acute striatal slices (ex vivo); assay type: cell-based, mouse; conditions: fresh acute striatal slices from adult mice, RB5 0.5–100 μM, 1 h at 32°C; GraphPad Prism; n = 8–12 slices per group; read-out: EC50 of pERK enhancement (ERK activation)
Method: Adult C57Bl/6 mice were decapitated after cervical dislocation and brain slices were freshly prepared as previously described in Orellana et al ([2012]) and Papale et al ([2016]). Briefly, the brains were rapidly removed from the skull, submerged in ice‐cold sucrose‐based dissecting solution, and sliced into 200 μm‐thick slices using a vibratome. […] After a rapid fixation in 4% PFA, slices were rinsed and cryoprotected overnight at 4°C in 30% sucrose solution. On the following day, slices were cut into 18 μm‐thick slices using a cryostat (Leica CM1850), mounted onto SuperFrost Plus slides (Thermo Scientific) and stored at −20°C until processing for immunohistochemistry or immunofluorescence.
Immunohistochemistry was performed as described in Papale et al ([2016]). […]
For ex‐vivo immunohistochemistry experiments, images were acquired from the dorsal striatum using a bright‐field microscope (Macro/Micro Imaging System, Leica) under a 40× magnification. Neuronal quantification was performed with ImageJ software by counting the number of phospho‐ERK positive cells in two sections for each sample in three fields per section. […] The EC50 for pERK was calculated using GraphPad Prism software.

ERK1/2 in HEK293 cells = assay: ERK1/2 immunofluorescence (nuclear translocation) in HEK293 cells; assay type: cell-based; conditions: HEK293, siRNA 200 nM 24 h, then RB5 50 μM 15 min
Method: (§1) For Western blot and immunofluorescence analysis, 0.6 × 10^6 HEK293 cells were seeded in 6‐well plates in the presence of DMEM High Glucose GlutaMax (Thermo Fisher Scientific) containing 10% Foetal Bovine Serum (FBS, Thermo Fisher Scientific) and 100 U/ml penicillin/streptomycin (Thermo Fisher Scientific). For Western blot analysis to assess ERK1/2 and phospho‐ERK1/2 levels, cells were serum starved for 24 h and incubated with RB5 50 μM or FBS 20% for 15 min at 37°C. To assess JNK and phospho‐JNK levels, cells were incubated with RB5 50 μM or anisomycin 5 μM for 30 min at 37°C. For immunofluorescence analysis, cells were serum‐starved for 24 h and incubated with 50 μM RB5 or 20% FBS for 15 min at 37°C.
(§2) After rinsing in PBS, cells were fixed in 4% PFA and permeabilized with increasing concentrations of methanol (33, 50, 75, and 95% in PBS, 2 min each at room temperature), followed by 100% methanol for 10 min at −20°C. […] The mean fluorescence intensity in the nucleus was calculated automatically by Fiji‐ImageJ software in 8–10 fields per slide. […]

[2] = test system: phospho-ERK1/2 in HEK293 cells; assay: phospho-ERK1/2 immunofluorescence (nuclear) in HEK293 cells; assay type: cell-based; conditions: HEK293, siRNA 200 nM 24 h, then RB5 50 μM 15 min
Method: as §1, §2

NOR memory = assay: Novel object recognition test (NOR); assay type: in vivo, mouse; conditions: mice, single systemic administration, 20 mg/kg i.p.
Method: NOR was performed as previously described (d'Isa et al, [2014]). Briefly, the test was performed in an open square box placed in a quiet room with dim light. The objects used were parallelepipeds in metal and glass vials filled with water. The protocol required 3 days and it was performed as follows.
Day 1: mice were individually placed in the empty arena for 5 min to familiarize with it and to measure their anxiety (thigmotaxis trial). The percentage of thigmotaxis is calculated as the time spent in the peripheral zone out of the total time spent in the arena (300 s.). Animals showing a thigmotaxis > 90% are discarded from the sample because considered biased for anxiety. Day 2: mice were placed into the arena for 10 min, where they were allowed to explore two identical objects (training trial). The amount of time spent by mice exploring each object was scored. […] Times of exploration for the familiar object and for the novel object were recorded. The discrimination index (D.I.), defined as the difference between the exploration time for the novel object and the one for the familiar object, divided by total exploration time, was calculated. The sessions were recorded with the video tracking software SMART (Panlab, Barcelona, Spain). […]

GRKKRRQRRRPPQGGGGGEPRRTEGVGPGVPGEVEMVKGQPFDV [RB5, six D-amino acids, acetylated N-terminus]
EC50 [1]: 3.4 µM | ERK1/2 nuclear translocation after KPNA2 downregulation (ERK1/2 in HEK293 cells): did not further enhance ERK1/2 nuclear translocation | ERK1/2 activation (nuclear phospho-ERK1/2) after KPNA2 or IPO7 downregulation [2]: failed to induce ERK1/2 activation | Persistence of NOR memory (NOR memory): over 120 h

Source: paper PMC10630888, “Nuclear ERK1/2 signaling potentiation enhances neuroprotection and cognition via Importinα1/KPNA2” (EMBO Molecular Medicine, 2023)
